{"source": "PubChem BioAssay (NCI)", "assay_in_all_cases": "NCI-60 cell line screen, 48 h", "key": {"[1]": {"test_system": "786-0 renal"}, "[2]": {"test_system": "A498 renal"}, "[3]": {"test_system": "A549 NSCLC"}, "[4]": {"test_system": "ACHN renal"}, "[5]": {"test_system": "CAKI-1 renal"}, "[6]": {"test_system": "CCRF-CEM leukemia"}, "[7]": {"test_system": "COLO 205 colon"}, "[8]": {"test_system": "DLD-1 colon"}, "[9]": {"test_system": "DMS 114 small cell lung"}, "[10]": {"test_system": "DMS 273 small cell lung"}, "[11]": {"test_system": "EKVX NSCLC"}, "[12]": {"test_system": "HCC-2998 colon"}, "[13]": {"test_system": "HCT-116 colon"}, "[14]": {"test_system": "HCT-15 colon"}, "[15]": {"test_system": "HL-60(TB) leukemia"}, "[16]": {"test_system": "HOP-18 NSCLC"}, "[17]": {"test_system": "HOP-62 NSCLC"}, "[18]": {"test_system": "HOP-92 NSCLC"}, "[19]": {"test_system": "HT29 colon"}, "[20]": {"test_system": "IGROV1 ovarian"}, "[21]": {"test_system": "K-562 leukemia"}, "[22]": {"test_system": "KM12 colon"}, "[23]": {"test_system": "KM20L2 colon"}, "[24]": {"test_system": "LOX IMVI melanoma"}, "[25]": {"test_system": "LXFL 529 NSCLC"}, "[26]": {"test_system": "M14 melanoma"}, "[27]": {"test_system": "M19-MEL melanoma"}, "[28]": {"test_system": "MALME-3M melanoma"}, "[29]": {"test_system": "MOLT-4 leukemia"}, "[30]": {"test_system": "NCI-H226 lung"}, "[31]": {"test_system": "NCI-H23 lung"}, "[32]": {"test_system": "NCI-H460 lung"}, "[33]": {"test_system": "NCI-H522 lung"}, "[34]": {"test_system": "OVCAR-3 ovarian"}, "[35]": {"test_system": "OVCAR-4 ovarian"}, "[36]": {"test_system": "OVCAR-5 ovarian"}, "[37]": {"test_system": "OVCAR-8 ovarian"}, "[38]": {"test_system": "RPMI-8226 leukemia"}, "[39]": {"test_system": "RXF 393 renal"}, "[40]": {"test_system": "SF-268 CNS"}, "[41]": {"test_system": "SF-295 CNS"}, "[42]": {"test_system": "SF-539 CNS"}, "[43]": {"test_system": "SK-MEL-2 melanoma"}, "[44]": {"test_system": "SK-MEL-28 melanoma"}, "[45]": {"test_system": "SK-MEL-5 melanoma"}, "[46]": {"test_system": "SK-OV-3 ovarian"}, "[47]": {"test_system": "SN12C renal"}, "[48]": {"test_system": "SNB-19 CNS"}, "[49]": {"test_system": "SNB-75 CNS"}, "[50]": {"test_system": "SNB-78 CNS"}, "[51]": {"test_system": "SR leukemia"}, "[52]": {"test_system": "SW-620 colon"}, "[53]": {"test_system": "TK-10 renal"}, "[54]": {"test_system": "U251 CNS"}, "[55]": {"test_system": "UACC-257 melanoma"}, "[56]": {"test_system": "UACC-62 melanoma"}, "[57]": {"test_system": "UO-31 renal"}, "[58]": {"test_system": "XF 498 CNS"}}, "note": "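The compound was tested at five concentrations on cells cultured in 96-well plates, with a 48-hour exposure period. The concentration for full growth arrest is given as TGI.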"}
{"smiles": "COc1cc(/C=C2\\CCC(C)(CN(C)C)C2=O)cc(OC)c1OC", "note": "(stereo not drawn)", "values": [{"measurement": "TGI", "setting": "[1]", "value": "> 100", "unit": "µM"}, {"measurement": "TGI", "setting": "[2]", "value": "> 100", "unit": "µM"}, {"measurement": "TGI", "setting": "[3]", "value": "> 100", "unit": "µM"}, {"measurement": "TGI", "setting": "[4]", "value": "> 100", "unit": "µM"}, {"measurement": "TGI", "setting": "[5]", "value": "> 100", "unit": "µM"}, {"measurement": "TGI", "setting": "[6]", "value": "> 100", "unit": "µM"}, {"measurement": "TGI", "setting": "[7]", "value": "> 100", "unit": "µM"}, {"measurement": "TGI", "setting": "[8]", "value": "> 100", "unit": "µM"}, {"measurement": "TGI", "setting": "[9]", "value": "> 100", "unit": "µM"}, {"measurement": "TGI", "setting": "[10]", "value": "> 100", "unit": "µM"}, {"measurement": "TGI", "setting": "[11]", "value": "> 88.3", "unit": "µM"}, {"measurement": "TGI", "setting": "[12]", "value": "> 100", "unit": "µM"}, {"measurement": "TGI", "setting": "[13]", "value": "> 100", "unit": "µM"}, {"measurement": "TGI", "setting": "[14]", "value": "> 100", "unit": "µM"}, {"measurement": "TGI", "setting": "[15]", "value": "> 67.2", "unit": "µM"}, {"measurement": "TGI", "setting": "[16]", "value": "> 100", "unit": "µM"}, {"measurement": "TGI", "setting": "[17]", "value": "> 100", "unit": "µM"}, {"measurement": "TGI", "setting": "[18]", "value": "> 100", "unit": "µM"}, {"measurement": "TGI", "setting": "[19]", "value": "> 100", "unit": "µM"}, {"measurement": "TGI", "setting": "[20]", "value": "> 100", "unit": "µM"}, {"measurement": "TGI", "setting": "[21]", "value": "> 100", "unit": "µM"}, {"measurement": "TGI", "setting": "[22]", "value": "> 100", "unit": "µM"}, {"measurement": "TGI", "setting": "[23]", "value": "> 100", "unit": "µM"}, {"measurement": "TGI", "setting": "[24]", "value": "> 100", "unit": "µM"}, {"measurement": "TGI", "setting": "[25]", "value": "> 100", "unit": "µM"}, {"measurement": "TGI", "setting": "[26]", "value": "> 100", "unit": "µM"}, {"measurement": "TGI", "setting": "[27]", "value": "> 100", "unit": "µM"}, {"measurement": "TGI", "setting": "[28]", "value": "> 100", "unit": "µM"}, {"measurement": "TGI", "setting": "[29]", "value": "> 100", "unit": "µM"}, {"measurement": "TGI", "setting": "[30]", "value": "> 100", "unit": "µM"}, {"measurement": "TGI", "setting": "[31]", "value": "> 100", "unit": "µM"}, {"measurement": "TGI", "setting": "[32]", "value": "> 100", "unit": "µM"}, {"measurement": "TGI", "setting": "[33]", "value": "> 100", "unit": "µM"}, {"measurement": "TGI", "setting": "[34]", "value": "> 100", "unit": "µM"}, {"measurement": "TGI", "setting": "[35]", "value": "> 100", "unit": "µM"}, {"measurement": "TGI", "setting": "[36]", "value": "> 100", "unit": "µM"}, {"measurement": "TGI", "setting": "[37]", "value": "> 100", "unit": "µM"}, {"measurement": "TGI", "setting": "[38]", "value": "> 72.9", "unit": "µM"}, {"measurement": "TGI", "setting": "[39]", "value": "> 100", "unit": "µM"}, {"measurement": "TGI", "setting": "[40]", "value": "> 100", "unit": "µM"}, {"measurement": "TGI", "setting": "[41]", "value": "> 100", "unit": "µM"}, {"measurement": "TGI", "setting": "[42]", "value": "> 100", "unit": "µM"}, {"measurement": "TGI", "setting": "[43]", "value": "> 100", "unit": "µM"}, {"measurement": "TGI", "setting": "[44]", "value": "> 100", "unit": "µM"}, {"measurement": "TGI", "setting": "[45]", "value": "> 100", "unit": "µM"}, {"measurement": "TGI", "setting": "[46]", "value": "> 100", "unit": "µM"}, {"measurement": "TGI", "setting": "[47]", "value": "> 100", "unit": "µM"}, {"measurement": "TGI", "setting": "[48]", "value": "> 100", "unit": "µM"}, {"measurement": "TGI", "setting": "[49]", "value": "> 100", "unit": "µM"}, {"measurement": "TGI", "setting": "[50]", "value": 99.4, "unit": "µM"}, {"measurement": "TGI", "setting": "[51]", "value": "> 100", "unit": "µM"}, {"measurement": "TGI", "setting": "[52]", "value": "> 100", "unit": "µM"}, {"measurement": "TGI", "setting": "[53]", "value": "> 100", "unit": "µM"}, {"measurement": "TGI", "setting": "[54]", "value": "> 100", "unit": "µM"}, {"measurement": "TGI", "setting": "[55]", "value": "> 100", "unit": "µM"}, {"measurement": "TGI", "setting": "[56]", "value": "> 100", "unit": "µM"}, {"measurement": "TGI", "setting": "[57]", "value": "> 100", "unit": "µM"}, {"measurement": "TGI", "setting": "[58]", "value": "> 100", "unit": "µM"}]}
